From US20010044151A1, “Ligands for modulating the expression of exogenous genes via an ecdysone receptor complex” (priority 1998, published 2001) come the findings set out here.

This assay has as its target T1, ecdysteroid receptor complex in Drosophila Kc cell cytosolic extract (Drosophila melanogaster, UniProt P34021).
T1 construct: The supernatant, containing the cytosolic protein extract; endogenous in cells; host or cells: Drosophila Kc167 cells, cytosolic extract
T1 sequence (P34021 1-878): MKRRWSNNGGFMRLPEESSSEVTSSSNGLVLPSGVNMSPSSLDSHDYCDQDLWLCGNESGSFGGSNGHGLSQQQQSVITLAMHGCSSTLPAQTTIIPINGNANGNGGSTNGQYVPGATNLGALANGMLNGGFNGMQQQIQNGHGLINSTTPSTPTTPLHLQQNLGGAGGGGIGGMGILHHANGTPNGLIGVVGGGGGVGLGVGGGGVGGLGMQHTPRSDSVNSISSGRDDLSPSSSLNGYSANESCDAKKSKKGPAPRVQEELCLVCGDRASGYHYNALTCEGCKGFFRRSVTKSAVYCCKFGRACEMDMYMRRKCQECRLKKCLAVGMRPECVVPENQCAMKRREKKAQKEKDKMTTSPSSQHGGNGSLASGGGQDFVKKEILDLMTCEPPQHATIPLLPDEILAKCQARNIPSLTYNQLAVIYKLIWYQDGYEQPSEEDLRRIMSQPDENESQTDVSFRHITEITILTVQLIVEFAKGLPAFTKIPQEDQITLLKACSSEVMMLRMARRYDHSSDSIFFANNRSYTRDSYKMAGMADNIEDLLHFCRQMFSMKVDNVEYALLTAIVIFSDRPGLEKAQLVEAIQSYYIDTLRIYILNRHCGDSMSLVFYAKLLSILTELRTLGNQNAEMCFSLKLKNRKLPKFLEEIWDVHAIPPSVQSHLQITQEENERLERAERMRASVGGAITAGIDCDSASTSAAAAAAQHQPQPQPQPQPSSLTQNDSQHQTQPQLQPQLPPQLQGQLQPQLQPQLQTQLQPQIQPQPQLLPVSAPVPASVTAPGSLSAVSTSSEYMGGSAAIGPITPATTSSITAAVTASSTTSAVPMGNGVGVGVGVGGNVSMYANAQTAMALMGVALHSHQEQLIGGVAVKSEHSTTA
T1 sequence (P20153 1-508 partner): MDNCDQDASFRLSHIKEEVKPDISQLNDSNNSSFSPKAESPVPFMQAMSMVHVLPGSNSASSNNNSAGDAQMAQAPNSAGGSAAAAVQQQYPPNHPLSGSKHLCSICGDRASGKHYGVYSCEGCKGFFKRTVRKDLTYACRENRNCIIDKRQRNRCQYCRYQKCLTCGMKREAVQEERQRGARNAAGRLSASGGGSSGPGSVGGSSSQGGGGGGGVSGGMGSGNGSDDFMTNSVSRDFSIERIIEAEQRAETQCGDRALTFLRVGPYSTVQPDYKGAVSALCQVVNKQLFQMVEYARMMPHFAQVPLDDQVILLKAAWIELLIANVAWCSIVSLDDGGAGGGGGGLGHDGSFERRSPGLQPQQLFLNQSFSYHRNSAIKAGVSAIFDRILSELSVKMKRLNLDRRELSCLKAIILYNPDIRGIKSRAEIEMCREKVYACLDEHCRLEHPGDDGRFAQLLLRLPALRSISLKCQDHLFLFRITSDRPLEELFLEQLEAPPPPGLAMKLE
In words: Competitive 3H-ponasterone A binding assay, Kc cytosolic ecdysone receptor extract. As to conditions: for Kc log(1/EC50) / EC50: Kc cells/extract; for Kd: read-out: Kd for Kc cells; for EC50: read-out: Kc log(1/EC50) (converted). Here is the method: The dipteran cell line Kc167, originally derived from Drosophila embryos (see Echalier, G. and Ohanessian, A. (1969) C. R. Acad. Sci., 268, 1771) was obtained from Dr. Peter Cherbas (Indiana University) and maintained as described (Cherbas, L., et. al., (1994), Methods in Cell Biology, 44, 161-179). A 400 ml culture of Kc Cells (3×10^7 cells per ml) was centrifuged at 700×g for 10 minutes at room temperature to pellet the cells. The supernatant was aspirated and the pellet was resuspended in 70 ml of cold TM buffer (10 mM Tris, 5 mM MgCl2, 1 mM DTT, pH 7.2). After a 10 minute incubation on ice, the cells were centrifuged at 2,300×g. The supernatant was discarded. The cell pellet was frozen at −20° C. for 1 hour. The frozen cell pellet was thawed slowly on ice and homogenized in a cold Potter-Elvehjem homogenizer using a teflon pestle on a Caframo homogenizer motor, at setting 500 with 10 up and down strokes at 4° C. This slurry was centrifuged at 100,000×g in a swinging bucket rotor for 60 minutes. The supernatant, containing the cytosolic protein extract was diluted with T buffer (10 mM Tris, 1 mM DTT, pH 7.2) to a protein concentration of 5 mg/ml. This extract was used immediately for ligand binding assays.
^3H ponasterone A, a potent phytoecdysteroid, (66,000 dpm; specific activity 170 Ci/mmole; NEN Life Science Products, Boston, Mass.) was mixed with 100 μl Kc cytosolic or Plodia nuclear ecdysone receptor extracts in […] glass test tubes in the absence or presence of 10 μM unlabelled 20-hydroxyecdysone (20E) to obtain an estimate of total or non-specific respectively, binding of tritiated ponasterone A. The tubes were vortexed and incubated overnight at 4° C. for Kc cytosolic extracts or 1.5 hours for Plodia nuclear extracts for binding reactions to reach equilibrium. At the end of equilibrium binding times, the bound tritiated ponasterone A was separated from the unbound by addition of ice-cold 600 μl or 300 μl dextran-coated charcoal solution (500 mg of Sigma HCL-washed activated charcoal, 50 mg Pharmacia Dextran T70, 50 ml T-buffer) to Kc or Plodia extracts, respectively. The tubes were vortexed briefly and centrifuged at 7,000×g to pellet the charcoal. The supernatant, 600 μl or 300 μl for Kc or Plodia extract reactions, respectively, containing tritiated ponasterone A bound to proteins, was aspirated into liquid scintillation vials containing 5 ml scintillation cocktail (ReadySafe®, Beckmann) each The mixture was vortexed and the amount of total or non-specifically bound radioactivity measured in a Beckmann LS500 liquid scinitllation counter with a 60% counting efficiency for tritium.
The concentrations of competitors that inhibited 50% of tritiated ponasterone A binding (IC50) was determined by incubating Kc or Plodia nuclear extracts or extracts of bacteria producing CfEcR(CDEF)-GST and CfUSP-GST fusions proteins with ^3H-ponasterone A (66,000 dpm per reaction) in the presence of a range of concentrations (0.1 nM to 10 μM) of test compounds. In the case of binding reactions using bacterial fusion proteins, 20 or one μl extract of bacteria producing CfEcR(CDEF)-GST or CfUSP-GST fusion proteins, respectively, were included per binding reaction. The assay conditions and determination of total and non-specific binding was as described above. The volume of competitor in solvent, like that for 20E or solvent alone, was kept at 1% of total reaction volume by using a 100 fold concentrated stock solution (i.e. a 100 fold dilution of stock solutions). The remainder of the assay was as described above. Each reaction was carried out in duplicate per concentration per test compound. Specific binding of ^3H-ponasterone A was determined by subtracting non-specific binding (that obtained in the presence of 10 μM 20E) from total (no competitor) or competed radioactivity bound. The data for each test compound was analyzed using IGOR Pro software (WaveMetrics, Lake Oswego, Oreg.) to calculate IC50 value. […]

For orientation: Kd means the free concentration of one partner at which half of the binding sites on the other are occupied at equilibrium, for simple one-to-one binding.

Structures are written as SMILES. Like-named read-outs stand apart in the source and are kept apart here.

With `Cc1cc(C)cc(C(=O)N(NC(=O)c2ccc3c(c2C)OCCO3)C(C)(C)C)c1` [Ligand 2], the “Kc log(1/EC50)” value is listed as 7.16. For the same molecule, the Kd (Table 2) was 60 nM. Also, the dissociation constant (Kd) (Table 3) was 47 nM.
Turning to `CC(C)(C)N(NC(=O)c1ccccc1)C(=O)c1ccccc1` [CE-2, 1,2-dibenzoyl-1-tert-butyl-hydrazine, reference compound], the EC50 was 3020 nM. For the same molecule, the dissociation constant Kd (Table 2) worked out at 2000 nM. The dissociation constant Kd (Table 3) came to 2000 nM.
As for `CCc1c(OC)cccc1C(=O)NN(C(=O)c1cc(F)cc(F)c1)C(C)(C)C` [Ligand 4], the “Kc log(1/EC50)” value turned out to be 7.41. Also, where the note is “Table 2”, the Kd is 47 nM. Further, the Kd (Table 3) was 26 nM.
The corresponding values for `CCc1c(OC)cccc1C(=O)NN(C(=O)c1cccc(OC)c1)C(C)(C)C` [Ligand 1] are 7.36, 39.5 nM and 40 nM.
The corresponding values for `CC(C)CC[C@@H](O)[C@](C)(O)[C@H]1CC[C@@]2(O)C3=CC(=O)[C@]4(O)C[C@@H](O)[C@@H](O)C[C@]4(C)[C@H]3[C@H](O)C[C@]12C` [CE-3, muristerone A, reference compound] are 7.96, 2.3 nM and 2 nM.
On to `COc1cccc(C(=O)NN(C(=O)c2cc(C)cc(C)c2)C(C)(C)C)c1C` [Ligand 3], for which the “Kc log(1/EC50)” value amounted to 6.74. Moreover, for the setting “Table 2”, the Kd was found to be 124 nM. For the same molecule, under “Table 3”, the Kd amounted to 124 nM.
For `CC(C)CC[C@@H](O)[C@](C)(O)[C@H]1CC[C@@]2(O)C3=CC(=O)[C@@H]4C[C@@H](O)[C@@H](O)C[C@]4(C)[C@H]3CC[C@]12C` [CE-4, ponasterone A, reference compound], the equilibrium dissociation constant (Kd) runs as follows: (Table 2) 0.7 nM; (Table 3) 0.7 nM.
As to `CCc1c(OC)cccc1C(=O)NN(C(=O)c1cc(Cl)cc(Cl)c1)C(C)(C)C` [Ligand 13], the “Kc log(1/EC50)” value amounted to 7.44. Under “Table 2”, the Kd stood at 65 nM. Further, the Kd (Table 3) worked out at 24 nM.
Consider `CCc1c(OC)cccc1C(=O)NN(C(=O)c1cc(C)cc(C)c1)C(C)(C)C` [Ligand 5], for which the “Kc log(1/EC50)” value is on record as 7.70. The Kd (Table 2) was found to be 13.3 nM. For the same molecule, the Kd (Table 3) came to 13 nM.
Take `CCc1ccc(C(=O)NN(C(=O)c2cc(C)cc(C)c2)C(C)(C)C)cc1` [CE-1, N-(4-ethylbenzoyl)-N′-(3,5-dimethylbenzoyl)-N′-tert-butyl-hydrazine, reference compound]: the EC50 was 282 nM. Besides, for the setting “Table 2”, the Kd was determined as 110 nM. In addition, the dissociation constant (Kd) (Table 3) was found to be 192 nM.
For `CCOc1cccc(C(=O)NN(C(=O)c2cc(C)cc(C)c2)C(C)(C)C)c1CC` [Ligand 12], the “Kc log(1/EC50)” value is 8.10. In addition, the Kd (Table 2) turned out to be 5.3 nM. Where the note is “Table 3”, the dissociation constant (Kd) was 5 nM.
